The record followed here is patent publication US20240109900A1, “AZABICYCLIC SHP2 INHIBITORS” (IRBM S.P.A., priority 2021, published 2024).

In assay [1] the target is SHP-2 enzyme (Met1-Leu525) (Homo sapiens (Human), UniProt Q06124). The experiment in a line: SHP2 inhibition enzymatic assay. The class given is biochemical. Conditions: 0.5 nM SHP-2 activated by 500 nM IRS1 peptide, 75 μM DiFMUP substrate; read-out: SHP2wt-IC50. The gist of the method:
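SHP-2 (Met1-Leu525), 0.5 nM, activated with 500 nM IRS1 bis-phosphopeptide, preincubated 30 min with compounds in HEPES pH 7.2 buffer with 5 mM DTT. 75 μM DiFMUP added for 30 min at room temperature, stopped with bpV; fluorescence read. IC50 from four-parameter logistic fit of % inhibition.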

For assay [2], the system named is ERK phosphorylation in KYSE-520 cells. Nature of the assay: Phospho-ERK cellular assay. The class given is cell-based. The settings on record: Homo sapiens, KYSE-520, 2 h, KYSE-520 cells, 2 h at 37° C., phospho-ERK1/2 (Thr202/Tyr204) TR-FRET; read-out: PERK IC50. The gist of the method: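 TR-FRET read-out of ERK1/2 Thr202/Tyr204 phosphorylation was taken after overnight antibody incubation at room temperature. Before that, KYSE-520 cells were treated 2 h at 37 °C with compound dilutions and lysed 30 min. Percent inhibition relative to vehicle and cell-free wells was fitted four-parametrically to give IC50.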
(In general: TR-FRET usually uses a lanthanide donor and a delayed reading to cut background.)

One may read the IC50 as the concentration needed to halve the response being measured.

Sequence of SHP-2 enzyme (Met1-Leu525) (Q06124 1-525): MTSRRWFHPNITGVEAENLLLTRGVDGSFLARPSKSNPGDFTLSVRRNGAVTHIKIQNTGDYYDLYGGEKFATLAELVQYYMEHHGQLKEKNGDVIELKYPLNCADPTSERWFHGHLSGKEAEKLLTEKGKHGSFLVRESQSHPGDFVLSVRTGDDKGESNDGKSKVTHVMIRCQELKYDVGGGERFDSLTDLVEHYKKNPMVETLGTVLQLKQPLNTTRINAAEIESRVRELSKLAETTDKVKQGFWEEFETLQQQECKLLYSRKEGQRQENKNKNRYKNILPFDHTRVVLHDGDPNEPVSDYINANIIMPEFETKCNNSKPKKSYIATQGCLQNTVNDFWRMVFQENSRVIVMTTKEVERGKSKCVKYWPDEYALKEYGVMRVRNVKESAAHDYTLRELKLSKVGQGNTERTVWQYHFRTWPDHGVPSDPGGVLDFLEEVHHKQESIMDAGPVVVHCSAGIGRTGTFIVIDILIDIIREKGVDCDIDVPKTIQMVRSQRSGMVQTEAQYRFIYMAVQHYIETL

Consider `COc1ccc2ncccc2c1-c1n[nH]c2nc(N3CC[C@@H]4[C@H](C3)[C@@]4(CN)c3cc(C)on3)cnc12` [Example 115, ((1S,6R,7S)-3-(3-(6-methoxyquinolin-5-yl)-1H-pyrazolo[3,4-b]pyrazin-6-yl)-7-(5-methylisoxazol-3-yl)-3-azabicyclo[4.1.0]heptan-7-yl)methanamine], for which the IC50 in assay [1] was 500 to 3000 nM; in assay [2] it was below 1000 nM.
Taken in the same sequence, the figures for `NC[C@]1(c2c(F)cccc2F)[C@@H]2CCN(c3cnc4c(-c5cccn6nccc56)n[nH]c4n3)C[C@@H]21` [Example 116, ((1S,6R,7R)-7-(2,6-difluorophenyl)-3-(3-(pyrazolo[1,5-a]pyridin-4-yl)-1H-pyrazolo[3,4-b]pyrazin-6-yl)-3-azabicyclo[4.1.0]heptan-7-yl)methanamine] were below 500 nM and below 1000 nM.
Taken in the same sequence, the figures for `Cn1cc2c(Cl)c(-c3n[nH]c4nc(N5CC[C@@H]6[C@H](C5)[C@@]6(CN)c5c(F)cccc5F)cnc34)ccc2n1` [Example 117, ((1S,6R,7R)-3-(3-(4-chloro-2-methyl-2H-indazol-5-yl)-1H-pyrazolo[3,4-b]pyrazin-6-yl)-7-(2,6-difluorophenyl)-3-azabicyclo[4.1.0]heptan-7-yl)methanamine] were below 500 nM and below 1000 nM.
For `NC[C@]1(c2ccccc2F)[C@@H]2CCN(c3cnc4c(-c5ccc6ncsc6c5)n[nH]c4n3)C[C@@H]21` [Example 118, ((1S,6R,7R)-3-(3-(benzo[d]thiazol-6-yl)-1H-pyrazolo[3,4-b]pyrazin-6-yl)-7-(2-fluorophenyl)-3-azabicyclo[4.1.0]heptan-7-yl)methanamine] the same measures were below 500 nM and below 1000 nM.
For the molecule `COc1cnc2ccc(-c3n[nH]c4nc(N5CC[C@@H]6[C@H](C5)[C@@]6(CN)c5ccccc5F)cnc34)c(Cl)c2n1` [Example 119, ((1S,6R,7R)-3-(3-(5-chloro-3-methoxyquinoxalin-6-yl)-1H-pyrazolo[3,4-b]pyrazin-6-yl)-7-(2-fluorophenyl)-3-azabicyclo[4.1.0]heptan-7-yl)methanamine], the concentration for half-maximal inhibition (IC50) in assay [1] was below 500 nM; in assay [2], below 1000 nM.
For `Cn1cc2c(Cl)c(-c3n[nH]c4nc(N5CC[C@@H]6[C@H](C5)[C@@]6(CN)c5ccc(F)cn5)cnc34)ccc2n1` [Example 120, ((1S,6R,7S)-3-(3-(4-chloro-2-methyl-2H-indazol-5-yl)-1H-pyrazolo[3,4-b]pyrazin-6-yl)-7-(5-fluoropyridin-2-yl)-3-azabicyclo[4.1.0]heptan-7-yl)methanamine] the same measures were below 500 nM and below 1000 nM.
With `Cc1nc2ccc(-c3n[nH]c4nc(N5CC[C@@H]6[C@H](C5)[C@@]6(CN)c5ccc(F)cn5)cnc34)c(Cl)c2s1` [Example 121, ((1S,6R,7S)-3-(3-(7-chloro-2-methylbenzo[d]thiazol-6-yl)-1H-pyrazolo[3,4-b]pyrazin-6-yl)-7-(5-fluoropyridin-2-yl)-3-azabicyclo[4.1.0]heptan-7-yl)methanamine], the IC50 in assay [1] was below 500 nM; in assay [2], below 1000 nM.
In the case of `NC[C@]1(c2ccccc2F)[C@@H]2CCN(c3cnc4c(-c5cccc6c5CC(=O)N6)n[nH]c4n3)C[C@@H]21` [Example 122, 4-(6-((1S,6R,7R)-7-(aminomethyl)-7-(2-fluorophenyl)-3-azabicyclo[4.1.0]heptan-3-yl)-1H-pyrazolo[3,4-b]pyrazin-3-yl)indolin-2-one], the IC50 in assay [1] is below 500 nM; in assay [2], below 1000 nM.
Taken in the same sequence, the figures for `Cn1cc2c(Cl)c(-c3n[nH]c4nc(N5CC[C@@H]6[C@H](C5)[C@@]6(CN)c5ccon5)cnc34)ccc2n1` [Example 123, ((1S,6R,7S)-3-(3-(4-chloro-2-methyl-2H-indazol-5-yl)-1H-pyrazolo[3,4-b]pyrazin-6-yl)-7-(isoxazol-3-yl)-3-azabicyclo[4.1.0]heptan-7-yl)methanamine] were below 500 nM and below 1000 nM.
Take `Cc1nc2ccc(-c3n[nH]c4nc(N5CC[C@@H]6[C@H](C5)[C@@]6(CN)c5ccon5)cnc34)c(Cl)c2s1` [Example 124, ((1S,6R,7S)-3-(3-(7-chloro-2-methylbenzo[d]thiazol-6-yl)-1H-pyrazolo[3,4-b]pyrazin-6-yl)-7-(isoxazol-3-yl)-3-azabicyclo[4.1.0]heptan-7-yl)methanamine]: the values for the IC50 in assay [1] and in assay [2] were below 500 nM and below 1000 nM, respectively.
For `COc1cccc2c(-c3n[nH]c4nc(N5CC[C@@H]6[C@H](C5)[C@@]6(CN)c5cc(C)on5)cnc34)ccnc12` [Example 125, ((1S,6R,7S)-3-(3-(8-methoxyquinolin-4-yl)-1H-pyrazolo[3,4-b]pyrazin-6-yl)-7-(5-methylisoxazol-3-yl)-3-azabicyclo[4.1.0]heptan-7-yl)methanamine] the same measures were below 500 nM and below 1000 nM.
Turning to `Cc1cc([C@@]2(CN)[C@@H]3CCN(c4cnc5c(-c6ccc(OC(F)(F)F)c7ncccc67)n[nH]c5n4)C[C@@H]32)no1` [Example 126, ((1S,6R,7S)-7-(5-methylisoxazol-3-yl)-3-(3-(8-(trifluoromethoxy)quinolin-5-yl)-1H-pyrazolo[3,4-b]pyrazin-6-yl)-3-azabicyclo[4.1.0]heptan-7-yl)methanamine], the values for the IC50 in assay [1] and in assay [2] were below 500 nM and below 1000 nM, respectively.
Taken in the same sequence, the figures for `Cc1cc([C@@]2(CN)[C@@H]3CCN(c4cnc5c(-c6ccc7nn(C)cc7c6C)n[nH]c5n4)C[C@@H]32)no1` [Example 127, ((1S,6R,7S)-3-(3-(2,4-dimethyl-2H-indazol-5-yl)-1H-pyrazolo[3,4-b]pyrazin-6-yl)-7-(5-methylisoxazol-3-yl)-3-azabicyclo[4.1.0]heptan-7-yl)methanamine] were below 500 nM and below 1000 nM.
For `COCc1ccc(-c2n[nH]c3nc(N4CC[C@@H]5[C@H](C4)[C@@]5(CN)c4cc(C)on4)cnc23)c2cccnc12` [Example 128, ((1S,6R,7S)-3-(3-(8-(methoxymethyl)quinolin-5-yl)-1H-pyrazolo[3,4-b]pyrazin-6-yl)-7-(5-methylisoxazol-3-yl)-3-azabicyclo[4.1.0]heptan-7-yl)methanamine] the same measures were below 500 nM and below 1000 nM.
As for `Cc1cc([C@@]2(CN)[C@@H]3CCN(c4cnc5c(-c6cccn7nccc67)n[nH]c5n4)C[C@@H]32)no1` [Example 129, ((1S,6R,7S)-7-(5-methylisoxazol-3-yl)-3-(3-(pyrazolo[1,5-a]pyridin-4-yl)-1H-pyrazolo[3,4-b]pyrazin-6-yl)-3-azabicyclo[4.1.0]heptan-7-yl)methanamine], the IC50 in assay [1] is below 500 nM; in assay [2], below 1000 nM.
Turning to `Cc1cc([C@@]2(CN)[C@@H]3CCN(c4cnc5c(-c6cc(F)cc7ncccc67)n[nH]c5n4)C[C@@H]32)no1` [Example 130, ((1S,6R,7S)-3-(3-(7-fluoroquinolin-5-yl)-1H-pyrazolo[3,4-b]pyrazin-6-yl)-7-(5-methylisoxazol-3-yl)-3-azabicyclo[4.1.0]heptan-7-yl)methanamine], the results for the IC50 in assay [1] and in assay [2] were 500 to 3000 nM and below 1000 nM, respectively.
